# Measured values: patent publication US6461638B1, “Laxative compositions and method for making same” (Techni-Pharma, priority 1996, dated 2002)
# Assay: Effervescence measure by release of CO2, Bernard's calcimeter, water heated to 37° C.
# Type: physicochemical
# Conditions: acid compound mixed with Na bicarbonate
# Excerpt: Effervescence Measure by Release of CO2
# Working of the Bernard's calcimeter.
# The assay consists in verifying the working of the equipment of the Bernard's calcimeter.
# A little modification has been made on the rubber stopper of the lateral neck by adding a tap. This addition is necessary until at time 0, the experiment begins with an inner pressure equal to the atmospheric pressure.
# Introduce a saturated sodium chloride solution in the flask and the graduated tube
# Adjust the level of the graduated tube before starting the experiment
# Lay on the magnetic heating stirrer the flask containing 100 ml of distilled water at 37° C.
# Fill up the flask with a stopper previously fixed at the end of the releasing tube of CO2
# Introduce the suppository in the flask without contact occurring between the suppository and the water
# Verify again the sodium chloride level in the graduated tube before turning off the tap of the side stopper
# Turn on the stirrer and drop the suppository, without forget to unlock the chronometer
# Thus, it is necessary to heat the water until 37° C. Thus a magnetic heating stirrer has been used.
structure (smiles),measurement,value
O=C1CCC(=O)N1 [succinimide],CO2 release (in words),only induces a reduced and delayed release
